Values quoted from earlier work, collected in patent US6797806B2, “Fragments of CR1 and their use” (AdProTech Limited, priority 1996, dated 2004).

How the values were obtained:
[1] = in vivo
[2] = in vivo; remark: listed apart in the source
[3] = in vivo; remark: listed apart in the source
[4] = systemic inhibition of CA over 6 days
[5] = test system: myeloperoxidase activity (an indicator of neutrophil accumulation); conditions: rat

In the case of “sCR1: soluble CR1 construct, complement inhibitor, molecular weight 245 kilodaltons”, the “activity in a reversed passive Arthus reaction” value [1] is listed as “demonstrated in vivo activity”, the “post-ischemic myocardial inflammation and necrosis” value [2] is listed as “suppressed” and the “survival rates following transplantation” value [3] is listed as “extended survival rates”. The “CNS inflammation, demyelination and deposition of complement components” value [4] was “blocked”, the clinical score [4] was “improvements in clinical score” and the “myeloperoxidase activity following traumatic injury” value [5] was “reduce myeloperoxidase activity”.
